Target: T1, SfGSTD1 (Spodoptera frugiperda, UniProt A0A9R0F5L2)
T1 construct: gene LOC118269876; not XP_035440580.2, another SfGSTD1 of the literature that clusters with SeGSTD3
T1 sequence (A0A9R0F5L2 1-244): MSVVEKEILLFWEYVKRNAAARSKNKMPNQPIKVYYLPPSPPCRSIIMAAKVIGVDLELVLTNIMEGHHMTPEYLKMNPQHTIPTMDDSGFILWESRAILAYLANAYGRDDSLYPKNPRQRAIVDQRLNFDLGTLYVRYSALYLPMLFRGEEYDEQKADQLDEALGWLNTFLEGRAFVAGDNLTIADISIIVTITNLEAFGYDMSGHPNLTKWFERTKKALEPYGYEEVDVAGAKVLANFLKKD
Assay: GSH conjugation, absorbance […] nm
Format: biochemical
Settings: 4 mM GSH; CDNB 0.125 to 4 mM

SMILES: O=[N+]([O-])c1ccc(Cl)c([N+](=O)[O-])c1 [CDNB]
- Km: 421 ± 109 µM
